Laboratory results reported in publication PMC8955938, “c-Myc Protein Level Affected by Unsymmetrical Bisacridines Influences Apoptosis and Senescence Induced in HCT116 Colorectal and H460 Lung Cancer Cells” (International Journal of Molecular Sciences, 2022).
Values joined by “and” are separate entries in the source; they are usually repeats but may differ in a detail not shown here. Equal entries are not always repeated.

Assays:
Format in all cases: cell-based, human
[1] = system: HCT116 cells; experiment: Cell cycle analysis (PI, flow cytometry), HCT116; settings: HCT116, IC90 doses; for cells with more than 4N DNA (polyploid): during the time of incubation (time not specified), control 10%
Description: (§1) After drug treatment, trypsinized and floating cells (2 × 10^6) were pooled, washed twice with ice-cold PBS and fixed in 70% (v/v) ethanol overnight at −20 °C. Cells were stained with propidium iodide (PI) (BD Biosciences, San Jose, CA, USA) and monitored by FACS Accuri C6 (BD Biosciences, San Jose, CA, USA).

[2] = system: H460 cells; experiment: Cell cycle analysis (PI, flow cytometry), H460; settings: H460, IC90 doses
Description: as §1

[3] = system: MRC-5 cells; experiment: MTT cell growth inhibition assay, MRC-5; settings: for IC50: MRC-5 normal cells; for IC90: MRC5, MRC-5 normal cells
Description: (§2) To assess cell viability, the MTT assay was used. HCT116, H460, CCD 841 CoN and MRC-5 cells (20,000/well and 50,000/well for cancer and normal cells, respectively) were seeded in 24-well plates, and the following UAs were added at concentrations up to 10 μM: C-2028, C-2041, C-2045 and C-2053. Stock solutions (10 mM) were prepared in sterile water, as well as dilutions, also in water. After 72 h, 3-(4, 5-dimethylthiazol-2-yl)-2,5-diphenyltetrazolium bromide (MTT; 800 μg/well) was added for 3 h, then the formazan crystals were dissolved in DMSO, and absorbance was read at 540 nm. Each point was conducted at least 4 times, and data are expressed relative to controls. The concentration of the drug required to inhibit cells growth by 50 (IC50), 80 (IC80) and 90% (IC90) compared to untreated control cells was determined from the curves plotting survival as a function of dose.

[4] = system: H460 cells; experiment: MTT cell growth inhibition assay, H460
Description: as §2

[5] = system: cleaved PARP in HCT116 cells; experiment: PARP cleavage flow cytometry, HCT116; settings: HCT116, IC90 doses, up to 120 h
Description: PARP cleavage was determined using Alexa Fluor 647-conjugated anti-cleaved PARP antibody (BD Biosciences, San Diego, CA, USA) according to the manufacturer’s instructions. Briefly, HCT116 and H460 cells (1 × 10^6) were trypsinized, pelleted, washed twice with ice-cold PBS and fixed in Fixation Buffer for 20 min on ice. After fixation, cells were rinsed twice with Perm Wash Buffer, stained with Alexa Fluor 647-conjugated anti-cleaved PARP antibody for 30 min, rinsed with Perm Wash Buffer and analyzed by flow cytometry with FACS Accuri C6 (BD, San Jose, CA, USA).

[6] = system: HCT116 cells; experiment: MTT cell growth inhibition assay, HCT116; settings: HCT116, 72 h
Description: as §2

[7] = system: KRAS gene expression in H460 cells; experiment: RT-PCR KRAS expression in H460; settings: H460, IC90 doses, with time of incubation up to 120 h
Description: HCT116, H460, CCD 841 CoN and MRC-5 cells after treatment with UAs were collected, washed twice with ice-cold PBS and resuspended in […] of PBS. mRNA was isolated using High Pure RNA Isolation Kit according to the manufacturer’s instructions (Roche, Basel, Switzerland). Briefly, cells were lysed in lysis-binding buffer and transferred to a filter tube. Contaminating DNA was removed by 15 min incubation of the filter tube with DNase I solution. The filter tube was washed once with buffer I and twice with buffer II, and after centrifugation, total RNA was eluted using the elution buffer. RNA concentration was determined by NanoDrop One (Thermo Scientific); 1 µg of RNA was reverse transcribed using Transcriptor First Strand cDNA Synthesis Kit according to the manufacturer’s instructions (Roche) in 20 µL of reaction containing 1 µg of RNA, […] anchored-oligo(dT)18Primer, 8 mM MgCl2, 20 U of Protector RNase Inhibitor, deoxynucleotide mix (1 mM each) and 22 U of Transcriptor Reverse Transcriptase. The reverse transcription reaction was carried out for 30 min at 55 °C and stopped by heating to 85 °C for 5 min and placing on ice. The cDNA solution was stored at −20 °C until use. Real-time polymerase chain reaction (PCR) was performed on 2 µL of cDNA using 0.2 µM forward and reverse primers on LightCycler® 480 using LightCycler® 480 SYBR Green I Master according to manufacturer’s instructions (Roche). Primers were designed using BLAST website. Their efficiency was checked, and they were ordered from Genomed (Warsaw, Poland). The sequences of primers were as follows: MYC set 1 forward primer, […]; MYC set 1 reverse primer, […]; MYC set 2 forward primer, […]; MYC set 2 reverse primer, […]; KRAS forward primer, […]; KRAS reverse primer, […]; reference gene, GAPDH forward primer ACCCACTCCTCCACCTTTG; and GAPDH reverse primer, CTCTTGTGCTCTTGCTGGG. Cycling conditions were as follows: 1 cycle for 7 min at 95 °C (preincubation), 45 cycles of amplification: 10 s at 95 °C (denaturation), 20 s at 62 °C (annealing), 30 s at 72 °C (extension), 1 cycle for obtaining melting curve and 1 cycle for 10 s at 40 °C (cooling). The results were standardized to the reference gene GADPH. The relative expression level of MYC and KRAS was quantified using comparative method […]. The results were obtained from three independent experiments, each of which was analyzed at least twice.

For `Cc1ccc([N+](=O)[O-])c2c(NCCCN(C)CCCNc3ccc4ncn5c6ccc(O)cc6c(=O)c3c45)c3ccccc3nc12` [Compound C-2045], the “Poli (polyploid cells)” value ([1]; 24 h) was 4.91 ± 2.33%, the “cells in G1” value ([1]; 24 h) was 24.61 ± 2.63% and the “cells in G2/M” value ([1]; 24 h) was 50.18 ± 2.39%. For the same compound, the “cells in S” value ([1]; 24 h) was 16.33 ± 1.34%, the “cells in Sub-G1” value ([1]; 24 h) was 3.90 ± 0.83% and the “Poli (polyploid cells)” value ([1]; 72 h) was 12.20 ± 1.85%. The “cells in G1” value ([1]; 72 h) was 28.51 ± 4.31%, the “cells in G2/M” value ([1]; 72 h) was 34.06 ± 3.35% and the “cells in S” value ([1]; 72 h) was 6.15 ± 0.70%. For the same compound, the “cells in Sub-G1” value ([1]; 72 h) was 17.38 ± 4.00%, the “Poli (polyploid cells)” value ([1]; 120 h) was 15.17 ± 3.74% and the “cells in G1” value ([1]; 120 h) was 22.11 ± 2.54%. The “cells in G2/M” value ([1]; 120 h) was 22.94 ± 2.48%, the “cells in S” value ([1]; 120 h) was 4.56 ± 1.19% and the “cells in Sub-G1” value ([1]; 120 h) was 35.40 ± 5.84% and 35.4% and 30%. The “cells with more than 4N DNA (polyploid)” value [1] was “around 15%”, the “cells in G2/M (4N DNA)” value ([1]; during the treatment after accumulation at 24 h (time not specified)) was roughly 23% and the “Poli (polyploid cells)” value ([2]; 24 h) was 1.78 ± 0.33%. The “cells in G1” value ([2]; 24 h) was 32.25 ± 3.01%, the “cells in G2/M” value ([2]; 24 h) was 28.15 ± 2.14% and the “cells in S” value ([2]; 24 h) was 26.56 ± 3.44%. The “cells in Sub-G1” value ([2]; 24 h) was 9.84 ± 4.46%, the “Poli (polyploid cells)” value ([2]; 72 h) was 2.05 ± 0.60% and the “cells in G1” value ([2]; 72 h) was 39.94 ± 4.65%. The “cells in G2/M” value ([2]; 72 h) was 20.87 ± 5.18%, the “cells in S” value ([2]; 72 h) was 18.53 ± 5.99% and the “cells in Sub-G1” value ([2]; 72 h) was 18.66 ± 3.61%. For the same compound, the “Poli (polyploid cells)” value ([2]; 120 h) was 2.28 ± 1.33%, the “cells in G2/M” value ([2]; 120 h) was 21.49 ± 5.96% and the “cells in S” value ([2]; 120 h) was 9.03 ± 1.37%. For the same compound, the “cells in Sub-G1” value ([2]; 120 h) was 42.42 ± 8.29% and 42.4%, the IC50 ([3]; Homo sapiens, MRC5, 72 h) was roughly 300 nM and the IC90 ([3]; Homo sapiens, 72 h) was 6130 ± 2350 nM. The IC50 ([3]; 72 h) was 218 ± 37 nM, the IC50 ([4]; Homo sapiens, NCI-H460, 72 h) was 95 ± 38 nM and the IC90 ([4]; Homo sapiens, NCI-H460, 72 h) was 399 ± 52 nM. For the same compound, the “cells with cleaved PARP” value [5] was “approximately 10%”, the IC50 ([6]; Homo sapiens, HCT-116, 72 h) was 59 ± 8 nM and the IC90 ([6]; Homo sapiens, HCT-116, 72 h) was 455 ± 26 nM. For the same compound, the “relative amount of KRAS mRNA” value [7] was “around 1.5”.

`O=c1c2ccccc2n2cnc3ccc(NCCCN4CCN(CCCNc5c6ccccc6nc6cccc([N+](=O)[O-])c56)CC4)c1c32` [Compound C-2041] was tested, and the “Poli (polyploid cells)” value ([1]; 24 h) was 4.22 ± 2.00%, the “cells in G1” value ([1]; 24 h) was 28.75 ± 3.88% and 29% and the “cells in G2/M” value ([1]; 24 h) was 29.92 ± 4.56%. For the same compound, the “cells in S” value ([1]; 24 h) was 25.97 ± 2.80% and 26%, the “cells in Sub-G1” value ([1]; 24 h) was 11.81 ± 1.94% and the “Poli (polyploid cells)” value ([1]; 72 h) was 4.47 ± 2.13%. The “cells in G1” value ([1]; 72 h) was 22.16 ± 5.06%, the “cells in G2/M” value ([1]; 72 h) was 14.29 ± 1.52% and the “cells in S” value ([1]; 72 h) was 9.59 ± 2.24%. For the same compound, the “cells in Sub-G1” value ([1]; 72 h) was 48.83 ± 7.71%, the “Poli (polyploid cells)” value ([1]; 120 h) was 4.64 ± 2.56% and the “cells in G1” value ([1]; 120 h) was 13.63 ± 3.71% and 13.6%. The “cells in G2/M” value ([1]; 120 h) was 9.44 ± 3.88%, the “cells in S” value ([1]; 120 h) was 3.25 ± 1.05% and the “cells with more than 4N DNA (polyploid)” value [1] was 5%. The “Poli (polyploid cells)” value ([2]; 24 h) was 1.78 ± 0.42%, the “cells in G1” value ([2]; 24 h) was 31.30 ± 2.48% and the “cells in G2/M” value ([2]; 24 h) was 23.89 ± 5.34%. For the same compound, the “cells in S” value ([2]; 24 h) was 34.76 ± 4.78%, the “cells in Sub-G1” value ([2]; 24 h) was 8.43 ± 3.14% and the “Poli (polyploid cells)” value ([2]; 72 h) was 2.52 ± 0.71%. The “cells in G1” value ([2]; 72 h) was 42.86 ± 1.87%, the “cells in G2/M” value ([2]; 72 h) was 21.24 ± 2.69% and the “cells in S” value ([2]; 72 h) was 16.09 ± 2.94%. For the same compound, the “cells in Sub-G1” value ([2]; 72 h) was 17.43 ± 2.40%, the “Poli (polyploid cells)” value ([2]; 120 h) was 2.30 ± 0.60% and the “cells in G1” value ([2]; 120 h) was 35.08 ± 3.65%. The “cells in G2/M” value ([2]; 120 h) was 14.84 ± 4.06%, the “cells in S” value ([2]; 120 h) was 11.59 ± 1.16% and the “cells in Sub-G1” value ([2]; 120 h) was 36.47 ± 3.18% and 36.5%. The IC50 ([3]; Homo sapiens, MRC5, 72 h) was 23 ± 4 nM, the IC90 ([3]; Homo sapiens, 72 h) was 6160 ± 2060 nM and the IC50 ([4]; H460, 72 h) was 15 ± 2 nM. For the same compound, the IC90 ([4]; H460, 72 h) was 46 ± 5 nM, the IC50 ([4]; Homo sapiens, NCI-H460, 72 h) was no more than 16 nM and the IC90 ([4]; Homo sapiens, NCI-H460, 72 h) was no more than 50 nM. For the same compound, the “cells with cleaved PARP” value [5] was “approximately 10%”, the IC50 [6] was 8 ± 2 nM and the IC90 [6] was 49 ± 5 nM. The IC50 ([6]; Homo sapiens, HCT-116, 72 h) was no more than 16 nM, the IC90 ([6]; Homo sapiens, HCT-116, 72 h) was no more than 50 nM and the “relative amount of KRAS mRNA” value [7] was “remained almost at the same level”.
